Results published in the supplement of paper PMC10307832.

Tests used:
Test in all cases: relative viability (nuclei count vs DMSO), 5 days (fraction); higher = more cells survive
[1] = compound: CCn1c(-c2nonc2N)nc2cnc(Oc3cccc(NC(=O)c4ccc(OCCN5CCOCC5)cc4)c3)cc21 + CCNC(=O)c1noc(-c2cc(C(C)C)c(O)cc2O)c1-c1ccc(CN2CCOCC2)cc1 [Luminespib] (partner 0.01 µM)
Summary of the method: (§1)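 A single step with final 0.05% Triton X-100, 1% formaldehyde and 1 ug/ml Hoechst fixed the cells and stained nuclei 5 days after treatment. Lung cancer cell lines in 1536-well plates had been treated by pin tool the day after seeding with one drug alone or a fixed anchor-drug dose plus five library-drug doses (not always all listed) in √10 steps, and nuclei were counted on 4× images. Relative viability is the ratio of nuclei in treated wells to nuclei in vehicle wells, taken as the median of duplicate plates.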

Mirin + Luminespib = compound: N=C1NC(=O)/C(=C/c2ccc(O)cc2)S1 [Mirin] + CCNC(=O)c1noc(-c2cc(C(C)C)c(O)cc2O)c1-c1ccc(CN2CCOCC2)cc1 [Luminespib] (partner 0.01 µM)
Summary of the method: as §1

Mirin + Crizotinib = compound: N=C1NC(=O)/C(=C/c2ccc(O)cc2)S1 [Mirin] + C[C@@H](Oc1cc(-c2cnn(C3CCNCC3)c2)cnc1N)c1c(Cl)ccc(F)c1Cl [Crizotinib] (partner 1 µM)
Summary of the method: as §1

Mirin + Phenformin = compound: N=C1NC(=O)/C(=C/c2ccc(O)cc2)S1 [Mirin] + N=C(N)NC(=N)NCCc1ccccc1 [Phenformin] (partner 250 µM)
Summary of the method: as §1

Cell Line	relative viability ([1]; first compound 0.04 µM)	relative viability ([1]; first compound 0.1265 µM)	relative viability ([1]; first compound 0.4 µM)	relative viability ([1]; first compound 1.265 µM)	relative viability ([1]; first compound 4 µM)	relative viability (Mirin + Luminespib; first compound 0.25 µM)	relative viability (Mirin + Luminespib; first compound 0.7906 µM)	relative viability (Mirin + Luminespib; first compound 2.5 µM)	relative viability (Mirin + Luminespib; first compound 7.906 µM)	relative viability (Mirin + Luminespib; first compound 25 µM)	relative viability (Mirin + Crizotinib; first compound 0.25 µM)	relative viability (Mirin + Crizotinib; first compound 0.7906 µM)	relative viability (Mirin + Crizotinib; first compound 2.5 µM)	relative viability (Mirin + Crizotinib; first compound 7.906 µM)	relative viability (Mirin + Crizotinib; first compound 25 µM)	relative viability (Mirin + Phenformin; first compound 0.25 µM)	relative viability (Mirin + Phenformin; first compound 0.7906 µM)	relative viability (Mirin + Phenformin; first compound 2.5 µM)	relative viability (Mirin + Phenformin; first compound 7.906 µM)	relative viability (Mirin + Phenformin; first compound 25 µM)
NCI-H838	0.366	0.235	0.252	0.2	0.208	0.316	0.332	0.285	0.229	0.396	0.895	0.918	0.834	0.906	0.681	0.654	0.292	0.634	0.626	0.468
HARA	0.839	1.18	0.682	0.801	0.678	0.808		0.693	0.773	0.372	1.06	1.15	1.05	0.995	1.14	0.536		0.467	0.475	0.36
NCI-H23	0.225	0.242	0.217	0.21	0.215	0.21	0.186	0.2	0.234	0.186	0.403		0.469	0.451	0.337	0.817		0.747	0.753	0.862
LCLC-97TM1	0.923	0.728	0.664	0.882	0.856	0.672	0.646	0.679	0.63	0.495	0.316	0.317	0.259	0.218	0.233	0.445	0.515	0.439	0.36	0.53
LC-2-ad	0.937	0.801	0.715	0.568	0.752	1.02	0.837	1.05	0.968	0.721	0.493	0.518	0.466		0.254	0.624	0.498	0.589	0.47	0.416
SW 1573	0.251	0.207	0.123	0.196	0.137	0.228	0.272	0.247	0.201	0.205	0.681	0.643	0.838	0.86	0.624	0.384	0.413	0.378	0.385	0.262
EKVX	1.03	0.807	0.898	0.765	0.645	0.868	0.754	0.907	0.74	0.886	0.839	0.811	1.1	0.947	1.1	0.251	0.238	0.246	0.224	0.258
NCI-H2087	0.161	0.143	0.181	0.153	0.143	0.184	0.135	0.169	0.161	0.158	0.898	1.08	0.849	0.771	1.16	0.494	0.559	0.454	0.429	0.613
HCC-827	1.09	0.592	0.792	0.591	0.588	0.673	0.665	0.724	0.841	1.03	0.98	0.961	0.973	0.885	1.07	0.415	0.362	0.401	0.403	0.428
NCI-H661	0.995	0.934	0.936	0.739	0.642	0.929	1.03	0.945	0.978	0.97		1.01	0.861		1.17	0.292	0.278	0.287	0.272	0.247
CAL-12T	0.687	0.444	0.287	0.379	0.286	0.364		0.369	0.696	0.548	0.667	0.509	0.619	0.573	0.639	0.627		0.665	0.591	0.657
NCI-H2342	0.763	0.847	0.715	0.665	0.785	0.671	0.815	0.753	0.592	0.7						0.724	0.559	0.658	0.37	0.48
SW 900	0.178	0.197	0.178	0.154	0.174	0.164	0.178	0.206	0.174	0.154						0.732	0.654	0.488	0.597	0.629
IA-LM											0.813	0.916	0.744	0.849	0.981					
EPLC-272H	0.263	0.697	0.265	0.26	0.286	0.176		0.311	0.198	0.185	0.83		0.853	0.671	0.779	0.354		0.307	0.254	0.234
A-427	1.14	0.974	0.627	0.416	0.524	0.756	1.01	0.905	0.89	0.952	0.87		0.809	0.881	0.958	0.311		0.363	0.266	0.348
NCI-H650	0.959	0.741	0.424	0.242	0.296	0.741	0.7	0.857		0.811	0.726		0.656		0.673	0.436	0.384	0.453		0.546
NCI-H1975	0.229	0.136	0.199	0.139	0.125	0.201	0.254	0.16	0.306	0.125	0.974	1.02	0.93	0.954	0.943	0.448	0.375	0.452	0.452	0.425
